Experiment: Distribution of intravenously administered FITC-labeled NIPA nanoparticles in uveal tissue
Details: 12 hours after intravenous administration; FIG. 3

fluorescein-isothiocyanate [FITC]
presence / accumulation in uveal tissue: no accumulation
